Reference: patent US20040005636A1, “Method for obtaining the binding affinities of a peptide library to a protein” (priority 2002, published 2004)
Read-outs that look alike come from different tables or passages of the source. Ends that are not written are not given here. Peptide text beside a SMILES is read from it. * marks the point of attachment. Fluorescein(5-NHCOCH2) = O=C(C*)Nc1ccc2c(c1)C(=O)OC21c2ccc(O)cc2Oc2cc(O)ccc21

T1: hTRβ-LBD (Homo sapiens, UniProt P10828)
T1 construct: The receptor ERα-LBD or TRβ-LBD, expressed using reported protocols; made in house
T1 sequence (P10828 217-461 limits assumed): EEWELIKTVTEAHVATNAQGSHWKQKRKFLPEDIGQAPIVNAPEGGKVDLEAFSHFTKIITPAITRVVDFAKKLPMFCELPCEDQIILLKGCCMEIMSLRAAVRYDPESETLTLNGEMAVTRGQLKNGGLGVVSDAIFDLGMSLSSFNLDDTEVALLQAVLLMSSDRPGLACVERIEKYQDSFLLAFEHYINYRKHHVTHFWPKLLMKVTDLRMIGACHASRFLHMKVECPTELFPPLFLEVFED

T2: hERα-LBD (Homo sapiens, UniProt P03372)
T2 construct: The receptor ERα-LBD or TRβ-LBD, expressed using reported protocols; made in house
T2 sequence (P03372 311-547 limits assumed): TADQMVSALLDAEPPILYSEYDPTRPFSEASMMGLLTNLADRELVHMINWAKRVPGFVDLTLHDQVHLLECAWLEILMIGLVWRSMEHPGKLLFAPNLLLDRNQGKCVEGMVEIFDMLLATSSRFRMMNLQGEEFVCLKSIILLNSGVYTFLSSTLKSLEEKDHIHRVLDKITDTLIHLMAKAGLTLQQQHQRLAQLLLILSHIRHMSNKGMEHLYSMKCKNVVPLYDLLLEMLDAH

T3: hTRβ-LBD (ligand binding domain of thyroid hormone receptor β) (human, UniProt P10828 202-461)
T3 construct: Assayed with the small-molecule ligand T3 present
T3 sequence (looked up): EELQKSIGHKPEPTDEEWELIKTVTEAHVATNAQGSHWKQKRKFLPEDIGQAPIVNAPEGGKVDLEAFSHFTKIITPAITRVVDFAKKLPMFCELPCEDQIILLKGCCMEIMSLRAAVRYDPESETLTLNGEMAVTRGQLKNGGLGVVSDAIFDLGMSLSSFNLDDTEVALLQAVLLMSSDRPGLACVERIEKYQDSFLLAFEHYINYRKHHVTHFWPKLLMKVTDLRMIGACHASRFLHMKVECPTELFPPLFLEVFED

T4: hERα-LBD (ligand binding domain of estrogen receptor α) (human, UniProt P03372 297-554)
T4 construct: Assayed with estradiol, diethylstilbestrol, genistein or tamoxifen present; the ligand is named under assay in each row
T4 sequence (looked up): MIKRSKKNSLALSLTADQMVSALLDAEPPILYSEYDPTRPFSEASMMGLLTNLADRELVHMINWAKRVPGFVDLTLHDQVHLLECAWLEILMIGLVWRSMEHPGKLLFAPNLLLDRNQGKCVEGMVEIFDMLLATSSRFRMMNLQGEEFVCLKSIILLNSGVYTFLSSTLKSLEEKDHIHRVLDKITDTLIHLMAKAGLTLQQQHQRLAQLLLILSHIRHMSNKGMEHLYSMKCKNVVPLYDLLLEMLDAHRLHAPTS

B1: SRC3-1 coregulator peptide (peptide)
peptide: C(5‑iodoacetamidofluorescein)ESKGHKKLLQLLTCSSDDR
notes: The peptide has a second, internal Cys
B2: SRC2-3 coregulator peptide (peptide)
peptide: C(5‑iodoacetamidofluorescein)KKKENALLRYLLDKDDTKD

What was measured:
[1] = target: T1, hTRβ-LBD; assay: Fluorescence polarization assay of coregulator peptide binding to TRβ-LBD; settings: for Kd: TRβ-LBD with ligand T3, 10 nM fluorescent peptide, mean of 2 independent assays in quadruplicate, AL = assay limits, read-out: Observed Kd (dissociation constants for p160 peptides for TRβ)
Procedure: (§1) The peptide library synthesized in Example 1 was assayed with ERα or TRβ receptor. Library members were kept at a constant concentration of 10 nM. A ligand was optionally added to the nuclear hormone receptor.
(§2) The receptor ERα-LBD or TRβ-LBD, expressed using reported protocols (for TR see, e.g., Darimont et al., Genes Dev., 12(21):3343-56, (1998); and for ER, see, e.g., Shiau et al., Cell, (1998), 95(7):927-937), was used. The concentration of protein varied between 0.001-20 μM in the following way. In 96 well plates, hTRβ-LBD or hERα-LBD was serially diluted from 40 μM to 0.002 μM in binding buffer (50 mM Sodium Phosphate, 150 mM NaCl, pH 7.2, 1 mM DTT, 1 mM EDTA, 0.01% NP40, 10% glycerol), containing 200 μM ligand (T3, for TRβ, or estradiol, diethylstilbestrol, genistein or tamoxifen for ERα).
(§3) Subsequently 10 μL of diluted protein was added to 10 μL of fluorescent coregulator peptide (20 nM) in 384-well plates yielding final protein concentrations of […] and 10 nM fluorescent peptide concentration. The samples were allowed to equilibriate for 30 minutes. Binding was then measured using fluorescence polarization (excitation λ at 485 nm, emission λ at 530 nm) on an Analyst AD (available from Molecular Devices).
One of the major potential perturbing phenomena in this assay is unexpected quenching or enhancement of fluorescence intensity. To control for this, both overall fluorescence intensity and fluorescence anisotropy for each sample were simultaneously monitored.
(§4) All experiments were carried out in quadruplicate, with each iteration containing the positive and negative controls, and 10-12 dose points. The data were then fit using Klotz plots to determine IC50 values using nonlinear regression analysis that fits the data to a modification of the model of Heyduk and Lee. (Heyduk et al., Proc. Natl. Acad. Sci., (1990), 1774; Heyduk et al., Nature, (1993), 364, 6437; Heyduk et al., Methods Enzymol., 274, 492. Further analysis was conducted using Hill and Scatchard plots to confirm number and homogeneity of binding sites as discussed hereinbelow.
FIGS. 1 to 3 illustrate the results of three different measurements of the binding affinity of selected members of the SRC peptide library to TRβ-LBD. FIG. 4 illustrates a Scatchard plot, which provides the Kd for the SRC2-2 peptide. FIG. 5 illustrates a Hill plot, which provides the Kd for the SRC2-2 peptide. Both the Scatchard and Hill plot correlate with the direct binding plots illustrated in FIGS. 1-3. The Scatchard data were best fit to a linear function, which indicates a single class of binding sites. The slope of the Hill plot is 1, which also indicates a single class of binding sites. Measured dissociation constants for binding of the SRC peptide library to TRβ are illustrated in Table 3. […]

[2] = target: T2, hERα-LBD; assay: Fluorescence polarization assay of coregulator peptide binding to ERα-LBD; settings: ERα-LBD in the presence of estradiol; read-out: Dissociation constant for ERα, Estradiol
Procedure: as §1, §2, §3, §4
FIG. 6 illustrates direct binding of SRC2-2 to ERα-LBD in the presence of the ligands estradiol, diethylstilbestrol and genistein. […] Measured dissociation constants for binding of members of the SRC peptide library to ERα, in the presence of 3 different ligands, are illustrated in Table 4 wherein the binding units are μM. Table 5 illustrates a comparison of binding constants (μM) for SRC peptides with the TRβ receptor in the presence of thyroid hormone T3, and the ERα receptor in the presence of estradiol.

[3] = target: T1, hTRβ-LBD; settings: cited from earlier work
[4] = target: T3, hTRβ-LBD (ligand binding domain of …); assay: fluorescence polarization, hTRβ-LBD titrated, T3 present; repeats Table 3
Procedure: (§5) The concentration of protein varied between 0.001-20 μM in the following way. In 96 well plates, hTRβ-LBD or hERα-LBD was serially diluted from 40 μM to 0.002 μM in binding buffer (50 mM Sodium Phosphate, 150 mM NaCl, pH 7.2, 1 mM DTT, 1 mM EDTA, 0.01% NP40, 10% glycerol), containing 200 μM ligand (T₃, for TRβ, or estradiol, diethylstilbestrol, genistein or tamoxifen for ERα).
as §3
as §4, with “IC₅₀” for “IC50”

[5] = target: T4, hERα-LBD (ligand binding domain of …); assay: fluorescence polarization, labelled peptide 10 nM, hERα-LBD titrated, estradiol present
Procedure: as §5, §3
as §4, with “IC₅₀” for “IC50”

[6] = target: T3, hTRβ-LBD (ligand binding domain of …); assay: fluorescence polarization, fluorescein-labelled peptide 10 nM, hTRβ-LBD titrated, T3 present
Procedure: as §5, §3
as §4, with “IC₅₀” for “IC50”

[7] = target: T4, hERα-LBD (ligand binding domain of …); assay: fluorescence polarization, hERα-LBD titrated, estradiol present; repeats Table 4
Procedure: as §5, §3
as §4, with “IC₅₀” for “IC50”

[8] = target: T4, hERα-LBD (ligand binding domain of …); assay: fluorescence polarization, labelled peptide 10 nM, hERα-LBD titrated, genistein present
Procedure: as §5, §3
as §4, with “IC₅₀” for “IC50”

[9] = target: T4, hERα-LBD (ligand binding domain of …); assay: fluorescence polarization, labelled peptide 10 nM, hERα-LBD titrated, diethylstilbestrol present
Procedure: as §5, §3
as §4, with “IC₅₀” for “IC50”

[10] = target: T3, hTRβ-LBD (ligand binding domain of …); assay: fluorescence polarization, hTRβ-LBD titrated, T3 present; Table 3 prints ≧3 µM for this pair
Procedure: as §5, §3
as §4, with “IC₅₀” for “IC50”

[11] = TRβ, Darimont et al., Genes & Dev. (1998) 12:3343, read-out: Published Results: Kd app

Molecule | Kd [1] | Kd [2] | Kd [3, 11] | Kd [8] | Kd [9] | other results
CC[C@H](C)[C@H](NC(=O)[C@H](CCCCN)NC(=O)[C@H](Cc1c[nH]cn1)NC(=O)[C@H](CCCNC(=N)N)NC(=O)[C@H](C)NC(=O)[C@@H](NC(=O)[C@H](CC(C)C)NC(=O)[C@@H](N)CSCC(=O)Nc1ccc2c(c1)C(=O)OC21c2ccc(O)cc2Oc2cc(O)ccc21)[C@@H](C)O)C(=O)N[C@@H](CC(C)C)C(=O)N[C@@H](Cc1c[nH]cn1)C(=O)N[C@@H](CCCNC(=N)N)C(=O)N[C@@H](CC(C)C)C(=O)N[C@@H](CC(C)C)C(=O)N[C@@H](CCC(N)=O)C(=O)N[C@@H](CCC(=O)O)C(=O)NCC(=O)N[C@@H](CO)C(=O)N1CCC[C@H]1C(=O)N[C@@H](CO)C(=O)N[C@@H](CC(=O)O)C(=O)O [SRC1-2] | 930 nM | 231 nM | – | – | – | –
CC(C)C[C@H](NC(=O)[C@H](C)NC(=O)[C@H](CC(N)=O)NC(=O)[C@H](CCC(=O)O)NC(=O)[C@H](CCCCN)NC(=O)[C@H](CCCCN)NC(=O)[C@H](CCCCN)NC(=O)[C@@H](N)CSCC(=O)Nc1ccc2c(c1)C(=O)OC21c2ccc(O)cc2Oc2cc(O)ccc21)C(=O)N[C@@H](CC(C)C)C(=O)N[C@@H](CCCNC(=N)N)C(=O)N[C@@H](Cc1ccc(O)cc1)C(=O)N[C@@H](CC(C)C)C(=O)N[C@@H](CC(C)C)C(=O)N[C@@H](CC(=O)O)C(=O)N[C@@H](CCCCN)C(=O)N[C@@H](CC(=O)O)C(=O)N[C@@H](CC(=O)O)C(=O)N[C@H](C(=O)N[C@@H](CCCCN)C(=O)N[C@@H](CC(=O)O)C(=O)O)[C@@H](C)O [SRC2-3] | ≥ 3000 nM | 1420 nM | 3200 nM | – | – | –
CC(C)C[C@H](NC(=O)[C@H](CCCCN)NC(=O)[C@H](CCCCN)NC(=O)[C@H](Cc1c[nH]cn1)NC(=O)CNC(=O)[C@H](CCCCN)NC(=O)[C@H](CO)NC(=O)[C@H](CCC(=O)O)NC(=O)[C@@H](N)CSCC(=O)Nc1ccc2c(c1)C(=O)OC21c2ccc(O)cc2Oc2cc(O)ccc21)C(=O)N[C@@H](CC(C)C)C(=O)N[C@@H](CCC(N)=O)C(=O)N[C@@H](CC(C)C)C(=O)N[C@@H](CC(C)C)C(=O)N[C@H](C(=O)N[C@@H](CS)C(=O)N[C@@H](CO)C(=O)N[C@@H](CO)C(=O)N[C@@H](CC(=O)O)C(=O)N[C@@H](CC(=O)O)C(=O)N[C@@H](CCCNC(=N)N)C(=O)O)[C@@H](C)O [SRC3-1] (H-C(Fluorescein(5-NHCOCH2))ESKGHKKLLQLLTCSSDDR-OH; N-terminus assumed) | – | – | – | – | – | Comparison of affinity for TRβ and ERα ([1]; Tables 3, 4 and 5): approximately the same affinity
CC[C@H](C)[C@H](NC(=O)[C@H](CCCCN)NC(=O)[C@H](Cc1c[nH]cn1)NC(=O)[C@H](CCCCN)NC(=O)[C@H](CCC(=O)O)NC(=O)[C@H](CCCCN)NC(=O)[C@H](CC(C)C)NC(=O)[C@@H](N)CSCC(=O)Nc1ccc2c(c1)C(=O)OC21c2ccc(O)cc2Oc2cc(O)ccc21)C(=O)N[C@@H](CC(C)C)C(=O)N[C@@H](Cc1c[nH]cn1)C(=O)N[C@@H](CCCNC(=N)N)C(=O)N[C@@H](CC(C)C)C(=O)N[C@@H](CC(C)C)C(=O)N[C@@H](CCC(N)=O)C(=O)N[C@@H](CC(=O)O)C(=O)N[C@@H](CO)C(=O)N[C@@H](CO)C(=O)N[C@@H](CO)C(=O)N1CCC[C@H]1C(=O)N[C@H](C(=O)O)C(C)C [SRC2-2] | 670 nM | 222 nM | 800 nM | – | – | Kd ([3]; hTRβ-LBD, reported value, read-out: Reported Kd): 1000 nM
B1 | – | – | – | 250 nM | 1000 nM | Kd [4]: 870 nM; Kd [5]: 160 nM; Kd [6]: 870 nM; Kd [7]: 160 nM
B2 | – | – | – | 2000 nM | 786 nM | Kd [10]: 3000 nM
